Drawing on patent US7671080B2, “1-benzylindole-2-carboxamide derivatives” (N.V. Organon, priority 2005, dated 2010), this text covers IC50 for ten compounds.

SMILES strings stand for the structures. Where only a bound is given, the exact number is not on record here.

T1 sequence (P21554 whole entry): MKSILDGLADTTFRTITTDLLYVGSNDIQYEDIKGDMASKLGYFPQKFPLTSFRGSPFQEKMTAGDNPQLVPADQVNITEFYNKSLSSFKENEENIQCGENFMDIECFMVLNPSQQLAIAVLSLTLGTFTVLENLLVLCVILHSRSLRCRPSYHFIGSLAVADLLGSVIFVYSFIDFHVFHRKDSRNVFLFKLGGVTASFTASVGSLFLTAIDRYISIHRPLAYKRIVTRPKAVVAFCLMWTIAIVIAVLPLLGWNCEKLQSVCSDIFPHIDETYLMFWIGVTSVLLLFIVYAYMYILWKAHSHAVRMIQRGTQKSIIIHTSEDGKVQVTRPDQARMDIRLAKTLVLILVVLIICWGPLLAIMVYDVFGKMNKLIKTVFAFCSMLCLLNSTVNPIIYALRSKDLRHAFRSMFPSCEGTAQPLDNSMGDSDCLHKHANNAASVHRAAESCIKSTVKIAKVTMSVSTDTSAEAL

The assay addresses T1, human cannabinoid CB1 receptor (Homo sapiens, UniProt P21554).
T1 construct: expressed in transfected cells; co-transfected with AP1-luciferase reporter
Description: In-vitro determination of efficacy and potency at the human CB1 receptor expressed in CHO cells (AP1-luciferase reporter, antagonism of CP-55,940). It counts as cell-based. Here is the method:
In-Vitro Determination of Efficacy and Potency at the Human CB1 Receptor Expressed in CHO Cells
Chinese hamster ovary (CHO) cells, which stably express the human cannabinoid CB1 receptor were co-transfected with a luciferase reporter gene which is under the regulatory control of an AP1-response element (AP1 luc). The cells were suspended in commercially available DMEM/F12 nut mix without phenol red, containing penicillin/streptomycin (50 U/50 μg/ml) and fungizone (1 μg/ml) before being seeded into white walled, white bottomed 96 well plates at a density of 3×10^4 cells per well (100 μl final volume) and incubated overnight (approximately 18 hrs at 37° C., 5% CO2 in air) prior to assay.
10 μl of each dilution was added to the relevant wells in the cell plate to give a final concentration range of 10 μM to 0.1 nM.
Plates were incubated for 5 hours at 37° C. before addition of 100 μl LucLite reagent to each well (reconstituted as per manufacturer's instructions). Plates were sealed with Top Seal and counted on the Packard TopCount (single photon counting, 0.01 minute count time, no count delay).
Following stimulation of the CB1 receptor, luciferase expression is enhanced and this can be measured as an increase in enzyme activity. This reporter system is therefore used as a functional test to evaluate the potency of antagonist compounds at the CB1 receptor. Data was analysed using curve fitting and a minimum sum of squares method to produce pEC50 values.
On the technique in general: Reporter assays use an easily measured gene product as a stand-in for the process of interest.
In the case of `N#Cc1ccc2c(c1)cc(C(=O)NCC1(O)CCCC1)n2Cc1cccc(OC(F)(F)F)c1` [Example 65, 5-Cyano-1-(3-trifluoromethoxybenzyl)-1H-indole-2-carboxylic acid (1-hydroxy-cyclopentylmethyl)amide], the IC50 (in general, the concentration needed to halve the response being measured) was 1 to 10 nM.

For `N#Cc1ccc2c(c1)cc(C(=O)N[C@@H]1CCC[C@H]1O)n2Cc1cccc(OC(F)(F)F)c1` (relative stereo) [Example 54, trans-5-Cyano-1-(3-trifluoromethoxybenzyl)-1H-indole-2-carboxylic acid (2-hydroxy-cyclopentyl)amide], the IC50 was in the range of 1 to 10 nM. For the compound `N#Cc1ccc2c(c1)cc(C(=O)NCC1(CO)CCCC1)n2Cc1cccc(OC(F)(F)F)c1` [Example 68, 5-Cyano-1-(3-trifluoromethoxybenzyl)-1H-indole-2-carboxylic acid (1-hydroxymethyicyclopentylmethyl)amide], the half-maximal inhibitory concentration (IC50) was less than 1 nM. In turn, `N#Cc1ccc2c(c1)cc(C(=O)NCC1(O)CCCCC1)n2Cc1cccc(OC(F)(F)F)c1` [Example 60, 5-Cyano-1-(3-trifluoromethoxybenzyl)-1H-indole-2-carboxylic acid (1-hydroxy-cyclohexylmethyl)amide] gave an IC50 of 1 to 10 nM. For `Cc1ccc(C(F)(F)F)cc1Cn1c(C(=O)NCCC(C)(C)O)cc2cc(C#N)ccc21` [Example 64, 5-Cyano-1-(2-methyl-5-trifluoromethylbenzyl)-1H-indole-2-carboxylic acid (3-hydroxy-3-methylbutyl)amide] the value was 1 to 10 nM.

Regarding `N#Cc1ccc2c(c1)cc(C(=O)NC[C@H]1CCCC[C@@H]1O)n2Cc1cccc(OC(F)(F)F)c1` (relative stereo) [Example 34, trans-5-Cyano-1-(3-trifluoromethoxybenzyl)-1H-indole-2-carboxylic acid (2-hydroxy-cyclohexylmethyl)amide], the IC50 is less than 1 nM. Then `CC(O)(CCNC(=O)c1cc2cc(C#N)ccc2n1Cc1cccc(OC(F)(F)F)c1)C(F)(F)F` (stereo not shown) [Example 71, 5-Cyano-1-(3-trifluoromethoxybenzyl)-1H-indole-2-carboxylic acid (4,4,4-trifluoro-3-hydroxy-3-methylbutyl)amide], with 1 to 10 nM.

On to `COc1ccc(OC(F)(F)F)cc1Cn1c(C(=O)NCC(C)(C)CO)cc2cc(C#N)ccc21` [Example 22, 5-Cyano-1-(2-methoxy-5-trifluoromethoxybenzyl)-1H-indole-2-carboxylic acid (3-hydroxy-2,2-dimethylpropyl)amide], for which the IC50 is 1 to 10 nM. For the compound `CC(C)OCCCNC(=O)c1cc2cc(Cl)ccc2n1Cc1cccc(OC(F)(F)F)c1` [Example 15, 5-Chloro-1-(3-trifluoromethoxybenzyl)-1H-indole-2-carboxylic acid (3-isopropoxypropyl)amide], the IC50 was 10 to 100 nM. Then `CN1CCN(c2cccc(Cn3c(C(=O)NC[C@H]4CCCC[C@@H]4O)cc4cc(C#N)ccc43)c2)CC1` (relative stereo) [Example 47, trans-5-Cyano-1-[3-(4-methyl-piperazin-1-yl)-benzyl]-1H-indole-2-carboxylic acid (2-hydroxy-cyclohexylmethyl)amide], with 10 to 100 nM.
